Data taken from US20190374601A1, “METHODS FOR TREATING FUNGAL INFECTIONS” (priority 2017, published 2019).
Several values for one entry are separate records, joined by “and”; a condition that tells them apart may be missing. Equal values may be shown once. Starred links: 1 amine or outer side, 2 acyl side, 3 side chain; linkers in the order of their positions; H or OH if unused. Positions of bridges follow the written chain, without caps; N, C: chain ends. Non-standard residues stand in square brackets, D forms with d. Residues, ends and D or L forms follow the SMILES beside them. *: point of attachment. Orn(4R-OH,5R-OCH2CH2NMe3+) = C[N+](C)(C)CCO[C@@H](N[*:3])[C@H](O)C[C@H](N[*:1])C(=O)[*:2]; pTerphenylCO(4''-OnC5H11) = CCCCCOc1ccc(-c2ccc(-c3ccc(C(=O)*)cc3)cc2)cc1; hTyr(3S-OH,4S-OH) = N[C@H](C(=O)O)[C@H](O)[C@@H](O)c1ccc(O)cc1; Pro(3S-OH,4S-Me) = C[C@H]1CN[C@H](C(=O)O)[C@H]1O; Hyp = O=C(O)[C@@H]1C[C@@H](O)CN1

How the values were obtained:
Assay type in all cases: in vivo
[1] = tested on: T. mentagrophytes; assay: Hair root invasion test (mycological evaluation), T. mentagrophytes dermatophytosis guinea pig model, different doses once weekly, Example 2; conditions: evaluated study day 12, relative to vehicle control
Method: (§1) Procedures for animal care and use, preparation of standard inoculum, and infection of the animals were carried out following the same steps as described in Example 1.
(§2) Infected guinea pigs were randomized into the following (1)-(5) groups (10 per group) (see Table 4): (1) a vehicle control (water+mannitol); (2) terbinafine 10 mg/kg PO days 1 and 8, as a positive control; (3) CD101 10 mg/kg SQ days 1 and 8; (4) CD101 20 mg/kg SQ days 1 and 8; and (5) CD101 40 mg/kg SQ days 1 and 8.
(§3) Animals were treated with CD101 SQ or PO (for terbinafine) once a week on days 1 and 8.
(§4) Study Day 1: Infect the animals with T. mentagrophytes and begin treatments.
(§5) Study Day 8: Last treatment.
(§6) Study Day 12: Clinical evaluation of the four quadrants in the marked area is done. Hair samples were obtained from each quadrant. Hairs (10 per quadrant) were planted in Potato Dextrose Agar, and incubated for 48 h for mycological evaluation. Procedures for clinical and mycological evaluations are described below.
(§7) The compounds was administered SQ or PO (0.3 mL/kg […]).
Hair samples were removed with sterile forceps from four quadrants. Ten hair samples from each quadrant were inoculated onto the corresponding quadrant on the Potato Dextrose agar plate and incubated at 30° C. for 2 days. The fungal growth at the hair root was examined under a stereomicroscope. The effectiveness of a compound in reducing the number of mycologically positive hair sample per treated group was expressed as percentage relative to the untreated control group of animals using the following formula:
where T=Positive hair in the test group, K=Positive hair in the Untreated control.

[2] = tested on: T. mentagrophytes; assay: Clinical evaluation of infected skin, T. mentagrophytes dermatophytosis guinea pig model, different doses once weekly, Example 2; conditions: evaluated study day 12, relative to vehicle control
Method: as §1, §2, §3, §4, §5, §6, §7
Clinical assessment of local changes of the infected skin area was scored as follows:
1=Few slightly erythematous places on the skin
2=Well-defined redness, swelling with bristling hairs.
3=Large areas or marked redness incrustation, scaling, bald patches, ulcerated in places.
4=Partial damage to the integument and loss of hair
5=Extensive damage to the integument and complete loss of hair at the site of infection.
Any other local skin reactions were noted. The assessment of clinical evaluation in the change of scores per treatment group was expressed as percentage relative to the untreated control group of animals using the following formula:
where T=Scores in the test group. K=Scores in the untreated control

[3] = Tissue concentration of subcutaneously injected CD101 in cynomolgus monkeys; conditions: for CD101 Concentration: individual animals, at necropsy; for Mean Concentration: mean of males and females
Method: In this study, the tissue concentration of subcutaneously injected CD101 was evaluated in cynomolgus monkeys.
Dose levels were 30, 60, and 120 mg/kg/dose for Groups 2, 3, and 4, respectively. […] The dose volumes were 1.2, 0.3, 0.6, and 1.2 mL/kg spread evenly over 4, 1, 2, and 4 dose sites for Groups 1-4, respectively, on each day of dosing. The control and 120 mg/kg/dose groups each consisted of 5 males and 5 females, and the 30 and 60 mg/kg/dose groups each consisted of 3 males and 3 females.
The animals were observed twice daily for mortality and moribundity. Clinical examinations were performed once daily for at least 6 consecutive days, including the day of randomization, prior to randomization, prior to dosing, 1-2 hours postdosing, once daily on nondosing days, and once daily during the recovery period. Detailed physical examinations were performed at least weekly during the acclimation period until randomization, on the day of randomization, weekly (±2 days) during the study period, and on the day of the scheduled necropsies. Injection site (IS) observations were performed prior to dosing (dose sites that were utilized on that day of dosing), 1-2 hours postdosing (dose sites that were utilized on that day of dosing), once daily on nondosing days (dose sites that had been previously been utilized), and twice weekly during the recovery period. Individual body weights were recorded weekly (±2 days). Individual body weights were collected at least weekly during the acclimation period until randomization, on the day of randomization, Study Day 0 (prior to dosing), weekly (2±days) during the study period, on the day prior to the day of the scheduled necropsies (nonfasted) and on the day of the scheduled necropsies (fasted). Clinical pathology parameters (hematology, coagulation, serum chemistry, and urinalysis) were analyzed during acclimation prior to randomization (Study Day −15), and on the day of the primary (Study Day 17) and recovery (Study Day 45) necropsies. Blood samples for toxicokinetic evaluation were collected from all animals/sex/group/time point prior to dose administration and at approximately 1, 2, 4, 8, 24, 48, and 72 hours after dose administration on Study Days 0 and 12. Complete necropsies were performed on all animals, and selected organs were weighed at the scheduled necropsies. Selected tissues were examined microscopically from all animals. Fingernail, toenail, nail bed, and abdominal skin samples were collected from all animals at the scheduled necropsies for bioanalytical analysis.

CCCCCOc1ccc(-c2ccc(-c3ccc(C(=O)N[C@H]4C[C@@H](O)[C@@H](OCC[N+](C)(C)C)NC(=O)[C@@H]5[C@@H](O)[C@@H](C)CN5C(=O)[C@H]([C@@H](C)O)NC(=O)[C@H]([C@H](O)[C@@H](O)c5ccc(O)cc5)NC(=O)[C@@H]5C[C@@H](O)CN5C(=O)[C@H]([C@@H](C)O)NC4=O)cc3)cc2)cc1 [CD101] ({pTerphenylCO(4''-OnC5H11)}-[Orn(4R-OH,5R-OCH2CH2NMe3+)]T[Hyp][hTyr(3S-OH,4S-OH)]T[Pro(3S-OH,4S-Me)]; lactam 1-C)
Percent Efficacy Mycological ([1]; 10 mg/kg SQ days 1 and 8): 80.9% | Percent Efficacy Mycological ([1]; 20 mg/kg SQ days 1 and 8): 82.9% | Percent Efficacy Mycological ([1]; 40 mg/kg SQ days 1 and 8): 98.5% | Percent Efficacy Clinical ([2]; 10 mg/kg SQ days 1 and 8): 90.5% | Percent Efficacy Clinical ([2]; 20 mg/kg SQ days 1 and 8): 94.2% | Percent Efficacy Clinical ([2]; 40 mg/kg SQ days 1 and 8): 98.4% | CD101 Concentration ([3]; Fingernail bed, 30 mg/kg/dose SC once every 3 days (5 doses), 30 mg/kg): 168 µg/g and 160 µg/g and 92.5 µg/g and 75.9 µg/g and 71.9 µg/g and 48.6 µg/g | Mean Concentration ([3]; Fingernail bed, 30 mg/kg/dose SC): 103 µg/g | CD101 Concentration ([3]; Fingernail bed, 60 mg/kg/dose SC once every 3 days (5 doses), 60 mg/kg): 218 µg/g and 96.7 µg/g and 251 µg/g and 159 µg/g and 175 µg/g and 184 µg/g | Mean Concentration ([3]; Fingernail bed, 60 mg/kg/dose SC): 181 µg/g | CD101 Concentration ([3]; Fingernail bed, 120 mg/kg/dose SC once every 3 days (5 doses), 120 mg/kg): 1351 µg/g and 404 µg/g and 67.1 µg/g and 129 µg/g and 346 µg/g and 332 µg/g and 330 µg/g and 147 µg/g and 283 µg/g and 114 µg/g | Mean Concentration ([3]; Fingernail bed, 120 mg/kg/dose SC): 350 µg/g | CD101 Concentration ([3]; Fingernail, 30 mg/kg/dose SC once every 3 days (5 doses), 30 mg/kg): 106 µg/g and 118 µg/g and 63.6 µg/g and 60.8 µg/g and 74.2 µg/g | CD101 Concentration ([3]; Fingernail, 60 mg/kg/dose SC once every 3 days (5 doses), 60 mg/kg): 194 µg/g and 108 µg/g and 527 µg/g and 171 µg/g and 155 µg/g and 175 µg/g | Mean Concentration ([3]; Fingernail, 60 mg/kg/dose SC): 222 µg/g | CD101 Concentration ([3]; Fingernail, 120 mg/kg/dose SC once every 3 days (5 doses), 120 mg/kg): 266 µg/g and 264 µg/g and 445 µg/g and 469 µg/g and 239 µg/g and 244 µg/g and 269 µg/g and 459 µg/g and 348 µg/g and 339 µg/g | Mean Concentration ([3]; Fingernail, 120 mg/kg/dose SC): 334 µg/g | CD101 Concentration ([3]; Skin, 30 mg/kg/dose SC once every 3 days (5 doses), 30 mg/kg): 38.2 µg/g and 44.4 µg/g and 43.7 µg/g | CD101 Concentration ([3]; Skin, 60 mg/kg/dose SC once every 3 days (5 doses), 60 mg/kg): 108 µg/g and 66.2 µg/g and 99.6 µg/g and 48.8 µg/g and 81.7 µg/g and 82.0 µg/g | Mean Concentration ([3]; Skin, 60 mg/kg/dose SC): 81.0 µg/g | CD101 Concentration ([3]; Skin, 120 mg/kg/dose SC once every 3 days (5 doses), 120 mg/kg): 133 µg/g and 132 µg/g and 32.0 µg/g and 12.2 µg/g and 141 µg/g and 151 µg/g and 77.6 µg/g and 43.1 µg/g and 135 µg/g and 15.9 µg/g | Mean Concentration ([3]; Skin, 120 mg/kg/dose SC): 87.3 µg/g | CD101 Concentration ([3]; Toenail bed, 30 mg/kg/dose SC once every 3 days (5 doses), 30 mg/kg): 76.9 µg/g and 102 µg/g and 50.5 µg/g and 86.1 µg/g and 82.9 µg/g | Mean Concentration ([3]; Toenail bed, 30 mg/kg/dose SC): 74.7 µg/g | CD101 Concentration ([3]; Toenail, 30 mg/kg/dose SC once every 3 days (5 doses), 30 mg/kg): 76.0 µg/g and 74.2 µg/g and 126 µg/g and 58.8 µg/g and 42.8 µg/g and 38.3 µg/g | Mean Concentration ([3]; Toenail, 30 mg/kg/dose SC): 69.3 µg/g | CD101 Concentration ([3]; Toenail, 60 mg/kg/dose SC once every 3 days (5 doses), 60 mg/kg): 265 µg/g and 86.7 µg/g and 198 µg/g and 106 µg/g and 160 µg/g and 79.2 µg/g | Mean Concentration ([3]; Toenail, 60 mg/kg/dose SC): 149 µg/g | CD101 Concentration ([3]; Toenail, 120 mg/kg/dose SC once every 3 days (5 doses), 120 mg/kg): 268 µg/g and 182 µg/g and 360 µg/g and 162 µg/g and 416 µg/g and 173 µg/g and 206 µg/g and 318 µg/g and 190 µg/g and 193 µg/g | Mean Concentration ([3]; Toenail, 120 mg/kg/dose SC): 247 µg/g
